Type in all cases: cell-based
In assay [1] the test system is human smooth muscle cells. Kind of assay: Smooth muscle cell invasion assay (Matrigel). The settings on record: estrogen 100 nM; FIG. 2. As to the method: Elevated capacity of smooth muscle cells and cancer cells to invade extracellular matrix is directly related to the initiation of the atherosclerotic plaque formation and to metastasis formation, respectively. Cultured cell invasiveness is estimated according to the number of cells penetrating through a porous plastic membrane covered with natural extracellular matrix ([…], Beckton-Dickinson). Cultured cells were grown in 75 cm^2 flasks in culture medium containing 10% fetal bovine serum (FBS) to near complete confluency of 37° C. For the last 48 hours of incubation de novo synthesized cellular DNA was metabolically labelled by adding 1 microCi/mL [^3H]thymidine. Labelled cells were detached from plastic surface by treating cell layer with 0.025% trypsin in PBS. Cultured cells were seeded on the top surface of the bottom plastic membrane of the inserts placed in the wells of a 24 well plastic plate in 0.5 mL of culture medium containing 10% fetal bovine serum (FBS) at concentration 40,000 cell/mL. Insert bottom membrane has controlled size pores of 8 micron in diameter and is covered with the layer of Matrigel. […] Number of cells penetrated to the other side of the porous membrane was assessed according to amount of lower membrane surface-bound radioactivity as measured with scintillation counter (LS 8000, Beckman-Coulter).

Assay [2] relates to human smooth muscle cells. Kind of assay: [3H]thymidine incorporation growth rate assay in human smooth muscle cells. As to conditions: estrogen 50-450 nM; FIG. 1. As to the method:
Rationale: As described, the excessive growth rate of smooth muscle cells and cancer cells is directly related to accelerated atherosclerotic process and malignant tumor growth, respectively. Cultured cell growth rate is estimated according to de novo DNA synthesis assessed (i.e., [^3H]Thymidine Incorporation) according to the amount of Tritium-labeled metabolic precursor incorporated into cellular DNA during incubation period.
Human smooth muscle cells (Aortic-Cambrex Corporation, San Diego, Calif., Cat. No. CC-2571) were seeded at a cell concentration of 40,000 cells/ml (0.5 mL) per well in 24-well plates containing an appropriate growth medium (DMEM plus 10% FBS). After three hours incubation, cells were washed and fresh culture media containing tested compositions at indicated amounts were added Cells were allowed to culture for an additional 3-4 days. At the end of the culture, an aliquot of [^3H]thymidine (DuPont-NEN, Boston, Mass.) was added at a final concentration of 1 microCi/mL ([…]). After 24 hours, cells were washed in ice-cold Dulbecco's PBS, fixed in cold 10% TCA (trichloroacetic acid) for at least 0.5 hour, and incubated with 0.5 mL 0.1N sodium hydroxide for 2 hours at 37° C. Cell bound [^3H]thymidine was extracted in 0.1 N NaOH and measured in a liquid scintillation counter (LS 8000, Beckman Coulter). […]
A general note: Dividing cells build labelled thymidine or BrdU into new DNA.

The test system of assay [3] is human breast cancer cells (MCF-7 cells). Kind of assay: [3H]thymidine incorporation in human breast cancer cells (MCF-7). The settings on record: estrogen 20-500 nM; FIG. 4.
Assay [4] relates to interleukin-6 release in human smooth muscle cells. Kind of assay: Interleukin-6 release in human smooth muscle cells. The settings on record: estrogen 100 nM; FIG. 3. From the text:
Rationale: Cytokine expression and its involvement in inflammatory responses are known. It has been recently accepted that vascular and smooth muscle pathology manifested in cardiovascular diseases is one of the inflammatory responses during atherosclerosis and hypertension. Interleukin-6 is one of the key cytokines which trigger the inflammation process. Over-expression of interleukin-6 in smooth muscle cells under pathological stimuli may further amplify the inflammatory lesions. The present compositions are designed to inhibit over-expression of cytokine production in smooth muscle cells (in particular, the interleukin-6). By inhibiting the expression of interleukin-6 in smooth muscle cells, the present compositions are believed to be a remedy alleviating the side-effects of estrogen replacement therapy in post-menopausal women.
The level of cellular vascular endothelium growth factor (VEGF) production is an indicator of a stimulation of neo-vascularization processes. A rate of cytokine synthesis and secretion into medium by culture cells was measured with a commercially available immunochemical assay kit. Cultured cells were seeded in 48 well plates in 0.5 mL of medium containing 10% FBS at concentration 40,000 cell/mL. […] The level of cytokines secreted into cell culture medium was measured using ELISA kits according to manufacturer's protocol (R&D Systems).

In assay [5] the test system is VEGF release in human breast cancer cells (MCF-7 cells). Kind of assay: VEGF release in human breast cancer cells (cytokine expression assay, ELISA). As to conditions: estrogen 10-100 nM; FIG. 6. From the text: Measurement of VEGF (Vascular Endothelial Growth Factor) in Cancer Cells Rationale: New vascularization formation (i.e., neo-vascularization) within a tumor bed is essential to the tumor growth. Without the new blood vessel formulation, most tumors can only grow to approximately 1 mm in diameter because the supply of nutrient and oxygen to the growing tumor cells depends on the blood vessels around the tumor. A tumor has the ability to attract new blood vessel formation (neo-vascularization) by releasing a protein known as vascular endothelial growth factor (VEGF). It is desirable to inhibit the VEGF expression in cancer cells so as to prevent neo-vascularization and inhibit tumor growth. (See, Vascular Endothelial Cell Growth Factor (VEGF), an Emerging Target for Cancer Chemotherapy, Shinkaruk, et al., Current Medicinal Chemistry and Anti-Cancer Agents, 2003, Vol. 3, pages 95-117).
The level of cellular vascular endothelium growth factor (VEGF) production is an indicator of a stimulation of neo-vascularization processes. A rate of cytokine synthesis and secretion into medium by culture cells was measured with a commercially available immunochemical assay kit. […] The level of cytokines secreted into cell culture medium was measured using ELISA kits according to manufacturer's protocol (R&D Systems).

With estrogen, in assay [1], the “human smooth muscle cell invasion” value is “induce an increase”. Moreover, the “[3H]thymidine incorporation in human smooth muscle cells” value in assay [2] is “induce an increase”. For the same substance, in assay [3], the “[3H]thymidine incorporation in human breast cancer cells (MCF-7)” value is reported as “induce an increase”. The “interleukin-6 release in human smooth muscle cells” value in assay [4] is “induce an increased”. Also, the “VEGF release in human breast cancer cells (MCF-7)” value in assay [5] is recorded as “induce an increased”.

The values above are taken from patent publication US20040253319A1, “Pharmaceutical compositions and method for alleviating side-effects of estrogen replacement therapy” (priority 2003, published 2004).
